Results taken from US10391268B2, “Device and method of delivering particles in the upper respiratory tract” (SERVICES MEDICAUX ARNOLD ET JOAN ZIDULKA INC., priority 2016, dated 2019).

Tested on: patient suffering from post-nasal drip and upper laryngeal syndrome
Test: two rounds of testing of orally administered, nasally exhaled aerosolized ciclesonide in a patient
Type: in vivo
Conditions: one patient; two rounds with an interval of two weeks; two sprays of 200 micrograms ciclesonide into FIG. 3 device, four to six oral inhalations each followed by nasal exhalation, morning and evening for two weeks
From the text: The Applicant has performed two rounds of testing on a patient suffering from post-nasal drip and upper laryngeal syndrome with an interval of two weeks between the rounds, each round consisting in administering a therapeutically effective dose of ciclesonide using the method of the present invention. […] In some embodiments, the therapeutically effective dose of ciclesonide for the treatment of upper airway cough syndrome is from 25 to 800 micrograms. Use of ciclesonide for the treatment of upper airway cough syndrome provides the advantage of avoiding fungal infections typically associated with administration of corticosteroid in the posterior nasal region, pharynx and the larynx.
In conducting the rounds of testing, the Applicant used the embodiment of the oral delivery device of the present invention shown in FIG. 3. […] It should be noted that in some embodiments, the effective volume is greater or smaller than 375 milliliters. In operation, the patient released two sprays of aerosolized ciclesonide into the oral delivery device, each one of the sprays containing 200 micrograms of ciclesonide, and performed four to six oral inhalations, each one of the inhalations being followed by a nasal exhalation into the ambient atmosphere. Each one of the inhalations drew ambient air into the oral delivery device to sweep in an additional amount of aerosolized ciclesonide. […]

CC(C)C(=O)OCC(=O)[C@@]12O[C@H](C3CCCCC3)O[C@@H]1C[C@H]1[C@@H]3CCC4=CC(=O)C=C[C@]4(C)[C@H]3[C@@H](O)C[C@@]12C [ciclesonide]
patient-reported symptoms typical of upper airway cough syndrome following each round: significant alleviation of the symptoms
